Test results as given in ChEMBL document CHEMBL2385023, “Negative allosteric modulators of metabotropic glutamate receptor subtype” (ACS Med Chem Lett, 2013).

How the values were obtained:
[1] = system: Mus musculus; test: Anxiolytic activity in ip dosed Harlan CD1 mouse assessed as inhibition of marble burying activity administered 15 to 30 mins prior to test; format: functional
[2] = Oral bioavailability in rat; format: ADME, organism-based; details: in vivo
[3] = Ratio of drug level in brain to plasma in mouse at 10 mg/kg, po; format: ADME, organism-based; parameters: dose 10 mg/kg, route oral; details: read-out: BPR
[4] = Plasma protein binding in human; format: ADME, cell-free; details: read-out: PPB (converted)
[5] = Oral bioavailability in cynomolgus monkey; format: ADME, organism-based, Macaca fascicularis; details: in vivo

Compound	ED [1] [mg/kg]	bioavailability [2] [%]	Kp [3]	fraction unbound [4]	bioavailability [5] [%]
Cc1cc(Oc2cnc(C)nc2)cc(C(=O)Nc2ccc(F)cn2)n1	10	–	–	–	–
Cc1cc(Oc2cncnc2)cc(C(=O)Nc2ccc(F)cn2)n1	10	30	5.9	0.086	42
Cc1cc(Oc2cncc(F)c2)cc(C(=O)Nc2ccc(F)cn2)n1	30	67	4.7	–	25
CCc1cccc(NC(=O)c2cc(Oc3cncnc3)cc(C)n2)n1	10	39	–	–	–
